According to patent US20140065610A1, “METHOD FOR PREDICTING CLINICAL BENEFIT IN THE TREATMENT OF NEURODEVELOPMENTAL, NEUROLOGICAL OR NEUROPSYCHIATRIC DISORDERS” (priority 2011, published 2014):

Tests used:
Format in all cases: in vivo, human
[1] = test system: adults with schizophrenia with predominantly negative symptoms; experiment: Phase II GRI schizophrenia trial: change of PANSS negative symptom factor score from baseline
Description: FIG. 2: Change of PANSS negative symptom factor score from baseline in all patients (FIG. 2(a)) and in CFHR1-low patients (FIG. 2(b)) and CFHR1-high patients (FIG. 2(c)) using natural cutoff for CFHR1. Patients with serum concentration ≦28 ug/ml were classified as CFHR1-low and patients with serum concentration >28 ug/ml were classified as CFHR1-high. Estimates of expected response and standard error bars from MMRM analysis. Dash-dot line and circle Placebo; solid line and squares 10 mg GRI; solid line and upward-pointing triangles 30 mg GRI; dashed line and diamonds 60 mg GRI.
(§1) A Phase II study was performed in adults with schizophrenia with predominantly negative symptoms. The individuals were clinically stable and on stable treatment with second generation antipsychotics. The study was conducted at multiple sites in Brazil, France, Germany, Hungary, Japan, Mexico, Poland, Russia, and the US according to ICH Guidelines for Good Clinical Practice (ClinicalTrials.gov Identifier: NCT00616798). The study protocol was approved by the health authorities of each country and the respective ethic committees of each site. All 323 patients had provided written consent to participate in the study and 224 patients had consented to the collection and use of serum samples for exploratory biomarker analysis. After a screening and a 4-week run-in period, patients were randomized to double-blind adjunctive treatment with placebo, 10 mg, 30 mg, or 60 mg of GRI given once a day for a duration of 8 weeks, followed by 4 week follow-up period. Similar percentages of patients in the four treatment arms completed the study.
(§2) Patients were assessed at screening, week −2, baseline, weeks 1, 2, 4, 6, 8, 10 and 12. Assessments included the PANSS, Clinical Global Impression—Severity of Illness (CGI-S) and Clinical Global Impression-Global Improvement (CGI-I) for overall psychopathology 56, CGI-S and CGI-I of Negative Symptoms (CGI-S-N, CGI-I-N) for assessment of negative symptoms only 57, and standard examinations of extrapyramidal symptoms (BAS58, SAS59, AIMS60). The primary efficacy variable assessing effects on negative symptoms was the change from baseline in the PANSS negative symptom factor score 64. Secondary efficacy variables were i) proportion of patients showing a clinical response in negative symptom defined as a 20% change from baseline in the PANSS negative symptom factor score and ii) CGI-I-N. Additional analyses included change in PANSS total score, remaining PANSS factor scores 64 CGI-S and CGI-I.
Results for the overall patient cohort are shown in the top panel, for the CFHR1-low patients in the middle panel and for the CFHR1-high patients in the lower panel. […]

[2] = test system: adults with schizophrenia with predominantly negative symptoms; experiment: Phase II GRI schizophrenia trial: PANSS negative symptom factor score responder rate; conditions: after 8 weeks
Description: FIG. 3: Response rates of dichotomized PANSS negative symptom factor score (response defined as ≧20% drop from baseline) at week 8. Shaded background bars are response rates in overall per protocol population. Solid grey bars are response rates in CFHR1 stratified subpopulations using natural cut-off for CFHR1.
as §1, §2
For the 10 mg arm the response rate in the CFHR1-high group was 88% compared to 69% in the non-stratified group, and for the 30 mg arm the response rate in the CFHR1-high group was 78% compared to 66% in the non-stratified group.

[3] = test system: adults with schizophrenia with predominantly negative symptoms; experiment: Phase II GRI schizophrenia trial: CGI-I negative symptoms responder rate
From the text: FIG. 4: Response rates of dichotomized CGI-I negative symptoms rating score (response defined as “much improved” or “very much improved”) at week 8. Shaded background bars are response rates in overall per protocol population. Solid grey bars are response rates in CFHR1 stratified subpopulations using natural cut-off for CFHR1.
FIG. 6: Response rates of dichotomized CGI-I negative symptoms rating score (response defined as “much improved” or “very much improved”) at week 8. Shaded background bars are response rates in overall per protocol population. Solid grey bars are response rates in CFHR1 stratified subpopulations using CFHR1/CFH ratio, with L (low) corresponding to CFHR1/CFH ratio below 0.01, M (medium) corresponding to CFHR1/CFH ratio above 0.01 and below 0.08 and with H (high) corresponding to CFHR1/CFH ratio above 0.08.
FIG. 9: Response rates of dichotomized CGI-I negative symptoms rating score (response defined as “much improved” or “very much improved”) at week 8. Shaded background bars are response rates in overall per protocol population from those who had consented for DNA sample. Solid grey bars are response rates in CFHR1 stratified subpopulations using genetic status of CFHR1 allele.
as §1, §2
As a secondary endpoint in the clinical trial the Clinical Global Impression (CGI) improvement of negative symptoms between baseline and week 8 evaluation was used. This outcome measure was treated as a binary variable. […] The analysis was performed on the combined placebo, 10 mg and 30 mg biomarker population using the per protocol (PP) population. Explanatory variables for this analysis are the baseline measurements of all measured proteins, the treatment (placebo or pooled 10 mg/30 mg treatment) and the treatment-protein interaction. A logistic regression model was used as predictor.
For the 10 mg arm the response rate in the CFHR1-high group was 69% compared to 39% in the non-stratified group, and for the 30 mg arm the response rate in the CFHR1-high group was 67% compared to 45% in the non-stratified group. […]

[4] = 10 mg arm, non-stratified group
[5] = 30 mg arm, non-stratified group

Structure (SMILES): C[C@H](Oc1ccc(S(C)(=O)=O)cc1C(=O)N1CCN(c2ncc(C(F)(F)F)cc2F)CC1)C(F)(F)F [GRI, [4-(3-fluoro-5-trifluoromethyl-pyridin-2-yl)-piperazin-1-yl]-[5-methanesulfonyl-2-((S)-2,2,2-trifluoro-1-methyl-ethoxy)-phenyl]-methanone]
- effect size, change in PANSS negative symptom factor score from baseline ([1]; 10 mg arm, CFHR1-high group (serum CFHR1 >28 ug/ml), 8 weeks, vs placebo): −1.01
- effect size, change in PANSS negative symptom factor score from baseline [1, 4]: −0.42
- effect size, change in PANSS negative symptom factor score from baseline ([1]; 30 mg arm, CFHR1-high group (serum CFHR1 >28 ug/ml)): −0.76
- effect size, change in PANSS negative symptom factor score from baseline [1, 5]: −0.47
- response rate, PANSS negative symptom factor score (at least 20% decrease from baseline) ([2]; 10 mg arm, CFHR1-high group): 88%
- response rate, PANSS negative symptom factor score (at least 20% decrease from baseline) [2, 4]: 69%
- response rate, PANSS negative symptom factor score (at least 20% decrease from baseline) ([2]; 30 mg arm, CFHR1-high group): 78%
- response rate, PANSS negative symptom factor score (at least 20% decrease from baseline) [2, 5]: 66%
- response rate, CGI of negative symptoms ([3]; 10 mg arm, CFHR1+/+ group (genetic status)): 57%
- response rate, CGI of negative symptoms ([3]; 10 mg arm, CFHR1-high group (natural cut-off 28 ug/ml), week 8): 69%
- response rate, CGI of negative symptoms ([3]; 10 mg arm, H subgroup (CFHR1/CFH ratio above 0.08)): 69%
- response rate, CGI of negative symptoms ([3]; 10 mg arm, L group (CFHR1/CFH ratio below 0.01), small sample size): 0%
- response rate, CGI of negative symptoms ([3]; 10 mg arm, M subgroup (CFHR1/CFH ratio medium)): 19%
- response rate, CGI of negative symptoms ([3]; 10 mg arm, non-stratified group of patients who consented for DNA sample): 39%
- response rate, CGI of negative symptoms ([3]; 10 mg arm, non-stratified serum subgroup, week 8): 39%
- response rate, CGI of negative symptoms ([3]; 30 mg arm, CFHR1+/+ group (genetic status)): 67%
- response rate, CGI of negative symptoms ([3]; 30 mg arm, CFHR1-high group (natural cut-off 28 ug/ml), week 8): 67%
- response rate, CGI of negative symptoms ([3]; 30 mg arm, H subgroup (CFHR1/CFH ratio above 0.08)): 67%
- response rate, CGI of negative symptoms ([3]; 30 mg arm, L group (CFHR1/CFH ratio below 0.01), small sample size): 0%
- response rate, CGI of negative symptoms ([3]; 30 mg arm, M subgroup (CFHR1/CFH ratio medium)): 28%
- response rate, CGI of negative symptoms ([3]; 30 mg arm, non-stratified group of patients who consented for DNA sample): 46%
- response rate, CGI of negative symptoms ([3]; 30 mg arm, non-stratified serum subgroup, week 8): 45%
- response rate, CGI of negative symptoms ([3]; 60 mg arm, H subgroup (CFHR1/CFH ratio above 0.08)): 33%
- response rate, CGI of negative symptoms ([3]; 60 mg arm, L group (CFHR1/CFH ratio below 0.01), small sample size): 100%
- response rate, CGI of negative symptoms ([3]; 60 mg arm, M subgroup (CFHR1/CFH ratio medium)): 25%
- response rate, CGI of negative symptoms ([3]; 60 mg arm, non-stratified serum subgroup, week 8): 34%
